Assays:
[1] = molecular target: T1, cathepsin B (Sus scrofa, UniProt A1E295); assay: In-vitro enzymatic activity assay on isolated cathepsin B (pork liver homogenate, Z-FR-AMC substrate); format: biochemical; conditions: for IC50: ester prodrug hydrolysed with NaOH to the free acid, 1 hour at 37° C., pH 6.0, read-out: IC50, inhibition of cathepsin B (catB) activity in pork liver homogenate; for inhibitory activity against isolated catB, compared to E64c: pork liver homogenate, result in words
T1 construct: from tissue; host or cells: pork liver homogenate
Procedure: The ability of the compounds VRO006_hydrol, VRO047_hydrol, VRO052_hydrol, VRO059_hydrol, VRO073_hydrol, VRO109_hydrol, VRO244_hydrol, VRO001_hydrol, VRO082_hydrol, VRO035_hydrol, VRO119_hydrol, and VRO243_hydrol to inhibit isolated cathepsin B was assessed in an enzymatic assay and compared to the inhibitory activity of the prior art E64c. In this assay, the compounds VRO006, VRO042, VRO047, VRO052, VRO059, VRO073, VRO109, VRO244, VRO001, VRO082, VRO035, VRO119, and VRO243 were used and the assay was performed in the presence of NaOH, in order to simulate the ester cleavage that occurs within the gastrointestinal tract, and to release the free acid (VROxxx_hydrol compound) from the prodrug (corresponding VROxxx compound). The chemical structures of compounds […], VRO042, VRO047, VRO052, VRO059, VRO073, […] and VRO244 and their chemical names are provided in [Table 2] above. The structures of VRO001, VRO082, VRO035, VRO119 and VRO243 are provided in [Table 3] below. The cathepsin B was from pork liver homogenate.
The enzymatic assay was performed as follows. Samples of homogenized pork liver (75 mg of fresh tissue per sample) were incubated for 1 hour at 37° C. with Z—FR-AMC (benzyloxycarbonyl-L-[…]-4-methylcoumaryl-7-amide) at […] in 1 M sodium acetate pH 6.0, supplemented with 2.5 mM EDTA, 2.5 mM DTT and 0.1% Triton X-100, and graded concentrations of test substances (between 0.1 nM and […]). The stock solutions of test substances were at 20 mM in DMSO. Fluorescence was determined at 445 nm using 365 nm as the excitation wavelength.

[2] = prior art statement; cited from earlier work
[3] = including pediatric patients; cited from earlier work

CC(C)C[C@H](NC(=O)[C@H]1O[C@@H]1C(=O)O)C(=O)NCc1ccccc1F [VRO073_hydrol, (2S,3S)-3-(((S)-1-((2-fluorobenzyl)amino)-4-methyl-1-oxopentan-2-yl)carbamoyl)oxirane-2-carboxylic acid]
IC50 [1]: ≤ 100 nM
inhibitory activity against isolated catB, compared to E64c [1]: only slightly reduced

CC(C)CCN(C)C(=O)C(CC(F)(F)F)NC(=O)C1OC1C(=O)O (stereo not shown) [VRO243_hydrol]
IC50 [1]: > 100 nM
inhibitory activity against isolated catB, compared to E64c [1]: drastic loss of activity

CC(C)CC(NC(=O)C1OC1C(=O)O)C(=O)NCCC(F)(F)F (stereo not shown) [VRO035_hydrol]
IC50 [1]: > 100 nM
inhibitory activity against isolated catB, compared to E64c [1]: inhibitory activity was lost

CC(C)C[C@H](NC(=O)[C@H]1O[C@@H]1C(=O)O)C(=O)NCCc1ccccn1 [VRO052_hydrol, (2S,3S)-3-(((S)-4-methyl-1-oxo-1-((2-(pyridin-2-yl)ethyl)amino)pentan-2-yl)carbamoyl)oxirane-2-carboxylic acid]
IC50 [1]: ≤ 100 nM
inhibitory activity against isolated catB, compared to E64c [1]: only slightly reduced

COCCCNC(=O)[C@H](CC(C)C)NC(=O)[C@H]1O[C@@H]1C(=O)O [VRO042_hydrol, (2S,3S)-3-(((S)-1-((3-3-methoxypropyl)amino)-4-methyl-1-oxopentan-2-yl)carbamoyl)oxirane-2-carboxylic acid]
IC50 [1]: ≤ 100 nM
inhibitory activity against isolated catB, compared to E64c [1]: maintaining efficient inhibition of catB

CC(C)C[C@H](NC(=O)[C@H]1O[C@@H]1C(=O)O)C(=O)NCCCN1CCCCC1 [VRO059_hydrol, (2S,3S)-3-(((S)-4-methyl-1-oxo-1-((3-(piperidin-1-yl)propyl)amino)pentan-2-yl)carbamoyl)oxirane-2-carboxylic acid]
IC50 [1]: ≤ 100 nM
inhibitory activity against isolated catB, compared to E64c [1]: almost similar to E64c

CC(C)CCNC(=O)C(CC(C)C)N(C)C(=O)C1OC1C(=O)O (stereo not shown) [VRO001_hydrol]
IC50 [1]: > 100 nM
inhibitory activity against isolated catB, compared to E64c [1]: unable to inhibit catB

CC(C)CCNC(=O)[C@H](CC(F)(F)F)NC(=O)[C@H]1O[C@@H]1C(=O)O [VRO109_hydrol, (2S,3S)-3-(((S)-4,4,4-trifluoro-1-(isopentylamino)-1-oxobutan-2-yl)carbamoyl)oxirane-2-carboxylic acid]
IC50 [1]: ≤ 100 nM
inhibitory activity against isolated catB, compared to E64c [1]: increased compared to E64c

COCC(NC(=O)C1OC1C(=O)O)C(=O)NCCC(C)C (stereo not shown) [VRO082_hydrol]
IC50 [1]: > 100 nM
inhibitory activity against isolated catB, compared to E64c [1]: did not allow to maintain the inhibitory activity

COCCNC(=O)[C@H](CC(C)C)NC(=O)[C@H]1O[C@@H]1C(=O)O [VRO047_hydrol, (2S,3S)-3-(((S)-1-((2-2-methoxyethyl)amino)-4-methyl-1-oxopentan-2-yl)carbamoyl)oxirane-2-carboxylic acid]
IC50 [1]: ≤ 100 nM
inhibitory activity against isolated catB, compared to E64c [1]: almost the same activity as E64c

CC(C)CCNC(=O)C(Cc1ccccn1)NC(=O)C1OC1C(=O)O (stereo not shown) [VRO119_hydrol]
IC50 [1]: > 100 nM
inhibitory activity against isolated catB, compared to E64c [1]: not tolerated

CCOC(=O)[C@H]1O[C@@H]1C(=O)N[C@@H](CC(C)C)C(=O)NCCC(C)C [Compound E64d]
penetration of the blood-brain barrier [2]: low penetration of the blood-brain barrier
toxicity for human in 3-year clinical trials [3]: non-toxicity for human

CC(C)CCN(C)C(=O)[C@H](CC(C)C)NC(=O)[C@H]1O[C@@H]1C(=O)O [VRO006_hydrol, (2S,3S)-3-(((S)-1-(isopentyl(methyl)amino)-4-methyl-1-oxopentan-2-yl)carbamoyl)oxirane-2-carboxylic acid]
IC50 [1]: ≤ 100 nM

CCOC(=O)[C@H]1O[C@@H]1C(=O)N[C@@H](CC(C)C)C(=O)N(C)CCC(C)C [VRO006, Ethyl (2S,3S)-3-(((S)-1-(isopentyl(methyl)amino)-4-methyl-1-oxopentan-2-yl)carbamoyl)oxirane-2-carboxylate]
inhibitory activity against isolated catB, compared to E64c [1]: quite similar to the one of E64c

O=C(NCc1ccccc1F)[C@H](CC(F)(F)F)NC(=O)[C@H]1O[C@@H]1C(=O)O [VRO244_hydrol, (2S,3S)-3-(((S)-4,4,4-trifluoro-1-((2-fluorobenzyl)amino)-1-oxobutan-2-yl)carbamoyl)oxirane-2-carboxylic acid]
IC50 [1]: ≤ 100 nM
inhibitory activity against isolated catB, compared to E64c [1]: only slightly lower than the prior art E64c
